What all share (format): cell-based
Assay [1] concerns the target T1, thromboxane receptor (Homo sapiens, UniProt P21731).
T1 construct: Platelets were collected from individuals and studied by light transmission aggregometry; endogenous in cells; host or cells: human platelets from responder and non-responder individuals
T1 sequence (P21731 1-343): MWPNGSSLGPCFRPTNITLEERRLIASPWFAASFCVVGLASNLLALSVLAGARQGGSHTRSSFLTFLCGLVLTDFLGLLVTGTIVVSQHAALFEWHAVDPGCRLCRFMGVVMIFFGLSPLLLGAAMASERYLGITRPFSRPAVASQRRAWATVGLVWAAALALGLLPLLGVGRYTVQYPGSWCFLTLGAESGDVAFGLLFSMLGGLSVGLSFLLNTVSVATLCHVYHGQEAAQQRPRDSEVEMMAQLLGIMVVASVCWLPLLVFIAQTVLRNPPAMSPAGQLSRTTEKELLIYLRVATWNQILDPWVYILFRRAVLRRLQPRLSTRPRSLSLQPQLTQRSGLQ
In words: U46,619 dose-response (aggregation, ATP release) in responder and non-responder samples. As to conditions: responders vs non-responders; FIG. 4. The text has this:
FIG. 4 includes plots of maximal aggregation (left) and ATP release (right) as a function of U46,610 concentration for both responder and non-responder individuals, and showing that there is little to no difference in U46,619 dose-response between the different phenotypic groups.
(§1) This Examples describes a study conducted to characterize the regulation of thromboxane-dependent human platelet activation by PGE2, and particularly nanomolar concentrations of PGE2. Platelets were collected from individuals and studied by light transmission aggregometry. Next, it was observed how low nanomolar concentrations of PGE2 effect aggregation and dense granule release induced by sub-maximal concentrations of an agonist of the thromboxane receptor (U46,619), thrombin, collagen, and ADP.
Samples from responders and non-responders were also exposed to different doses of U46,619.

The subject of assay [2] is human platelet. Put plainly: PGE2 effect on human platelet aggregation and dense granule release, light transmission aggregometry. The following applies: agonist concentrations producing full activation of the platelets (max); even micromolar PGE2; FIG. 1.
Assay [3] concerns human platelet. The description is as above.
Description: as §1

Molecules are shown by their SMILES.

Regarding `CCCCC[C@H](O)/C=C/[C@@H]1[C@@H](C/C=C\CCCC(=O)O)[C@H]2CO[C@@H]1C2` [U46,619], the “difference in U46,619 dose-response between phenotypic groups” value in assay [1] is “No significant no difference”.
For the compound `CCCCC[C@H](O)/C=C/[C@H]1[C@H](O)CC(=O)[C@@H]1C/C=C\CCCC(=O)O` [PGE2, prostaglandin E2], the “effect on aggregation or granule release” value in assay [2] is listed as “did not affect either aggregation or granule release”. Further, in assay [3] (76 individuals, FIG. 2), the “individuals with strong inhibition of platelet activity in response to PGE2” value is recorded as “approximately 28%”, the “individuals without significant inhibition of platelet aggregation in response to PGE2 (non-responders)” value worked out at 55% and the “partial responders to PGE2” value is recorded as 17%. In assay [3] (FIG. 5), the “effect on ADP-induced aggregation” value is recorded as “no effect”, the “effect on U46,610 aggregation” value is on record as “did have an effect” and the “effect on collagen-induced aggregation” value is given as “no effect”. In assay [3] (nanomolar PGE2), the “individuals in whom PGE2 affected the timing but not the final magnitude of aggregation (partial responders)” value is on record as “approximately 31%” and the “individuals in whom PGE2 did not have detectable effects (nonresponders)” value was “approximately 42%”. The “individuals in whom PGE2 inhibits platelet aggregation (responders)” value in assay [3] (nanomolar PGE2, aggregation induced by U46,619 and PAR4-AP) was “approximately 26%”. In addition, the “aggregation and dense granule release induced by sub-maximal U46,619 and thrombin” value in assay [3] (nanomolar PGE2, responder populations, FIG. 3) is “capable of preventing aggregation and dense granule release”.

For the origin of these results see US10036068B1, “Diagnosis, prognosis, and treatment of myocardial infarction” (Vanderbilt University, priority 2012, dated 2018).
